Source: US6939863B2, “Prevention of atherosclerosis and restenosis” (priority 2002, dated 2005)
Entries after “also recorded” stand apart in the source; their conditions may differ.

Assays:
in vivo = details: male, New Zealand White, rabbit, 0.1 % in the drinking water, Serum PTU at sacrifice, 0.1% propylthiouracil in drinking water
Experimental: Serum propylthiouracil levels were measured by HPLC with mephenoxalone (Tung Yang Chemical Industries, Taiwan) as an internal standard. One hundred microliters of serum was placed into a tube containing 25 microliters of mephenoxalone (Tung Yang Chemical Industries, Taiwan) at 1 milligram per milliliter. All tubes were treated with 25 microliters of 1 molar K2HPO4 and mixed well by vortexing. The contents of each tube were extracted with 2 milliliters of methyl tert-butyl ether (MTBE) (Sigma, St. Louis, Mo.). Tube contents were mixed and centrifuged for 10 minutes at 3000 rpm at 25° C. The supernatant was transferred to a glass tube, dried under nitrogen gas, and reconstituted with 300 microliters of mobile phase. HPLC was performed by using a Hitachi HPLC system (Hitachi, Japan). An ODS column (Cosmosil 5C18-MS, 4.6 millimeters×250 millimeters, 5 micrometers, Nacalai Tesque, Japan) was used in this chromatographic separation, as well as an ultraviolet detector detecting at 275 nanometers. The mobile phase (acetonitrile/water/phosphoric acid, 40/60/0.5, vol/vol/vol) was degassed and filtered before use. The column flow rate was 1.0 milliliter per minute and column temperature was maintained at 40° C.

[1] = system: rat vascular smooth muscle cells; assay: Vascular smooth muscle cell proliferation (cell number); format: cell-based; details: for Cell number of VSMCs: 24 hours
Experimental: Rat vascular smooth muscle cells (VSMCs) (passages 5-10) were prepared from Sprague-Dawley rats and cultured in Dulbecco's modified Eagle's medium (DMEM) supplemented with 10% fetal bovine serum (FBS) as previously described (Kirschenlohr et al, in “Human Cell Culture Protocols”, New Jersey, Humana Press Inc, 1996, pp. 318-335). Human endothelial cells from umbilical veins were prepared as described (Morgan, in “Human Cell Culture Protocols”, New Jersey, Humana Press Inc, 1996, pp. 101-152)
Rat vascular smooth muscle cells and human endothelial cells were plated at a density of 10,000 cells per square centimeter in 24-well plates. After 24 hours, cells at 70-80% confluency were treated with propylthiouracil dissolved in 100% dimethylsulfoxide (DMSO) at final concentrations of from 0.05 millimolar to 15 millimolar, or with methimazole (Sigma, St. Louis, Mo.) dissolved in water at the concentrations of from 0.01 millimolar to 1 millimolar for 24-72 hours. Cell numbers were visually counted using a hemocytometer. For the thymidine incorporation study, cells were deprived of serum for 36 hours and labeled with [methyl-^3H]thymidine at […] per milliliter for 12-24 hours after synchronization. Thymidine incorporation was then measured (Newby and George, 1996, Curr. Opin. Cardiol., 11:547). Effects of propylthiouracil and methimazole on the number of vascular smooth muscle cells and human endothelial cells and thymidine incorporation by vascular smooth muscle cells were each expressed as a percentage of the number and thymidine incorporation of control cells maintained in medium containing 0.1% DMSO as vehicle.

restenosis = details: summary table; cited from earlier work; note: key: '+' represents the ability; a '−' represents the inability of conversion from a non-contracile phenotype to a contractile phenotype in an in vitro condition; A '↓' represents decrease; a '?' represents no data is available
[2] = Rabbit 12-week study: body weight, chow and water consumption, serum lipids, thyroid hormone index, blood counts, arterial pressure, heart rate; details: for Weight at sacrifice / Chow consumption: 12 weeks; for Chow consumption / Water consumption: mean ± SD
[3] = propylthiouracil-treated groups

Question: Which results are given for `CCCc1cc(=O)[nH]c(=S)[nH]1` [Propylthiouracil, 6-n-propyl-2-thiouracil]?
Answer: concentration at 12 weeks (in vivo; 2% cholesterol diet): 1330 ± 1200 ng/mL; concentration at 12 weeks (in vivo; normal chow): 1570 ± 700 ng/mL; Cell number of VSMCs ([1]; 0.05 millimolar): 103 % of control; Proliferation of VSMCs at low concentration ([1]; 0.05 millimolar, 24 hours treatment): not inhibited; Proliferation of VSMCs at low concentration, long-term ([1]; 0.05 millimolar, exposed for more than 2 days): antiproliferative effect was indeed observed; Cell number of VSMCs ([1]; 0.5 millimolar): 103 % of control; Cell number of VSMCs ([1]; 2.5 millimolar): 76 % of control; Cell number of VSMCs ([1]; 5 millimolar): 57 % of control; IC50 ([1]; Rattus norvegicus, VSMC, 24 h, read-out: IC50 for VSMCs (proliferation)): 5.8 mM; Inhibition of growth/proliferation of VSMCs ([1]; concentration-dependent, PTU 0.05-5 millimolar, methimazole 0.01-1 millimolar): significantly inhibited; Effect on animal models of restenosis, Rat (restenosis): +; Serum (milligrams percent) at sacrifice ([2]; 2% cholesterol diet): 43 ± 33 milligrams percent; Serum CHO at sacrifice ([2]; 2% cholesterol diet): 1965 ± 156 milligrams percent; Serum HDL at sacrifice ([2]; 2% cholesterol diet): 67 ± 24 milligrams percent; Serum LDL at sacrifice ([2]; 2% cholesterol diet): 1856 ± 152 milligrams percent; Serum TG at sacrifice ([2]; 2% cholesterol diet): 213 ± 167 milligrams percent; Weight at sacrifice ([2]; 2% cholesterol diet): 3.06 ± 0.17 kilograms; Chow consumption ([2]; 2% cholesterol diet): 123 ± 18 grams per day; Water consumption ([2]; 2% cholesterol diet): 201 ± 41 milliliters per day; Body weight at the end of treatment ([2]; PTU and CHO+PTU groups, despite decreased water and chow intake): did not have a reduction in the body weight; Serum thyroxine (T4) ([2]; after 4 weeks of treatment): decreased-to unmeasurable levels; Serum triiodothyronine (T3) ([2]; after 4 weeks of treatment): decreased-to unmeasurable levels; also recorded: decreased to unmeasurable levels; Thyrotropin (TSH) level ([2]; hypothyroid groups): increase; Arterial pressures and heart rates ([2]; hypothyroid propylthiouracil-treated groups): did not have their arterial pressures and heart rates altered; Serum (milligrams percent) at sacrifice ([2]; normal chow): 32 ± 8 milligrams percent; Serum CHO at sacrifice ([2]; normal chow): 154 ± 22 milligrams percent; Serum HDL at sacrifice ([2]; normal chow): 43 ± 30 milligrams percent; Serum LDL at sacrifice ([2]; normal chow): 82 ± 32 milligrams percent; Serum TG at sacrifice ([2]; normal chow): 175 ± 50 milligrams percent; Weight at sacrifice ([2]; normal chow): 3.08 ± 0.17 kilograms; Chow consumption ([2]; normal chow): 113 ± 13 grams per day; Water consumption ([2]; normal chow): 196 ± 17 milliliters per day; Serum cholesterol, triglyceride, LDL, and VLDL levels compared with the control group ([2]; normal chow, propylthiouracil only (Group 2)): slight increase; Agranulocytosis [2, 3]: did not occur; Blood counts [2, 3]: remained essentially unchanged
